Measured values: US20240287124A1, “PRODRUGS OF 4'-SUBSTITUTED NUCLEOSIDE REVERSE TRANSCRIPTASE INHIBITORS” (Merck Sharp & Dohme LLC, priority 2023, published 2024)
Values after ≈ are worked out from the molar mass of the structure shown.

Assays:
[1] = system: HIV-1 wild-type (R8) virus; assay: Viral KINetics in Green cells (VIKING) assay, HIV-1 replication in MT4-GFP reporter cells; type: cell-based; settings: Human immunodeficiency virus 1, 10% normal human serum, MT4-GFP cells, HIV-1 wild-type (R8); read-out: Viking (10% NHS), IC50
Method in brief: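 MT4-GFP cells infected overnight with HIV-1 R8 at MOI ~0.01, then added to compound plates in RPMI with 10% normal human serum; 10-point 3-fold dilutions (typically 4 μM-0.2 nM). Green cells counted at ~48 h and 72 h; reproductive ratio (72 h/48 h) gave % inhibition, IC50 by 4-parameter fit.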

[2] = Aqueous solubility in PBS, pH 7.4; type: physicochemical; settings: phosphate buffered saline, pH 7.4, aqueous buffer, thermodynamic from solid, pH 7.4 phosphate buffered saline, 24 hours, amorphous or crystalline material; read-out: Aqu. Solubility
Method in brief: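 Excess solid suspended at 0.5 mg/mL in PBS pH 7.4 and stirred 24 hours. Filtrate (0.45 μm) diluted 1:1 with ACN:H2O and quantified by UPLC against a standard curve; residual solid phase checked by XRPD and PLM.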

[3] = Plasma stability in frozen human plasma; type: in vitro ADME; settings: frozen human plasma at 37° C., 0-3 hr; read-out: T1/2 Human Plasma (converted)
Description: Plasma stability of the compounds was evaluated in frozen human plasma at 37° C. in a 10% CO2 environment. The stability of the analyte was assessed by determining the percentage of drug loss over the course of 0, 0.25, 0.5, 1, and 3 hr. In addition, the appearance of Compound A was determined for the same time course. Percent of drug loss as based on ratio with internal standard. Analyte concentrations were measured by LC/MS/MS. Linear regression was performed with log transformed percent of average TO values and linear time values. The elimination rate constant (ke) was calculated from the slope of this regression line and the half-life (T½) calculated based on the elimination rate constant.

SMILES	IC50 [1]	solubility at 24 h [2]	half-life [3]
C#C[C@]1(CO)O[C@@H](n2ccc3c(N)nc(Cl)nc32)C[C@@H]1OC(=O)CCCC [Example 3, (2R,3S,5R)-5-(4-amino-2-chloro-7H-pyrrolo[2,3-d]pyrimidin-7-yl)-2-ethynyl-2-(hydroxymethyl)tetrahydrofuran-3-yl pentanoate]	3.7 nM	27 µg/mL (≈ 68.7 µM)	16.7 h
C#C[C@]1(CO)O[C@@H](n2ccc3c(N)nc(Cl)nc32)C[C@@H]1OC(=O)Oc1ccccc1 [Example 12, (2R,3S,5R)-5-(4-amino-2-chloro-7H-pyrrolo[2,3-d]pyrimidin-7-yl)-2-ethynyl-2-(hydroxymethyl)tetrahydrofuran-3-yl phenyl carbonate]	2.9 nM	2.9 µg/mL (≈ 6.76 µM)	0.41 h
C#C[C@]1(COC(=O)C(CC)CC)O[C@@H](n2ccc3c(N)nc(Cl)nc32)C[C@@H]1O [Example 40, ((2R,3S,5R)-5-(4-amino-2-chloro-7H-pyrrolo[2,3-d]pyrimidin-7-yl)-2-ethynyl-3-hydroxytetrahydrofuran-2-yl)methyl 2-ethylbutanoate]	5.5 nM	282 µg/mL (≈ 693 µM)	1.9 h
C#C[C@]1(CO)O[C@@H](n2ccc3c(N)nc(Cl)nc32)C[C@@H]1OC(=O)C(C)C [Example 2, (2R,3S,5R)-5-(4-amino-2-chloro-7H-pyrrolo[2,3-d]pyrimidin-7-yl)-2-ethynyl-2-(hydroxymethyl)tetrahydrofuran-3-yl isobutyrate]	41 nM	136 µg/mL (≈ 359 µM)	48.4 h
